Assay results as given in patent US7435431B2, “Method for controlling body weight in estrogen-insufficient women” (Abbott Laboratories, priority 2004, dated 2008).

Tests used:
Type in all cases: in vivo, rat
[1] = system: ovariectomized (OVX) rats; experiment: Experiment III: serum, urine and bone mineral and biochemical measures
Experimental: (§1) After five days of acclimatization, study animals were randomly assigned to one of 15 groups (n=10/group) and placed in individual cages. Rats were either sham-operated (SHAM) or ovariectomized (OVX) and fed casein-based diets for forty days. To ensure that sufficient bone loss has occurred in the OVX animals, bone mineral density was assessed via Dual Energy X-ray Absorptiometry (DEXA) prior to treatment. Groups 1 and 2 were fed casein-based diets throughout the entire length of the study and served as the control groups. Treatments were initiated for Groups 3-15 forty days post ovariectomy surgery and followed for 60 days. Bone mineral density was assessed before and after treatments. […] Urine was collected in acid-washed tubes, acidified with 0.03 ml of 6 mol/L of HCl per ml of urine and the total volume was measured. […] Initial and weekly body weights were measured. Sham animals were fed ad libitum and their precise food intakes were measured every three days. Before each feeding, the food remaining was weighed and the amount ingested was calculated. […]
(§2) The composition of the semi-purified casein-based diets are described in the following table. […] Sham animals were fed ad libitum and their precise food intakes were measured every three days. Before each feeding, the food remaining was weighed and the amount ingested was calculated. […]

[2] = system: ovariectomized (OVX) rats; experiment: Experiment III: micro-computed tomography
Experimental: (§3) After five days of acclimatization, study animals were randomly assigned to one of 15 groups (n=10/group) and placed in individual cages. Rats were either sham-operated (SHAM) or ovariectomized (OVX) and fed casein-based diets for forty days. To ensure that sufficient bone loss has occurred in the OVX animals, bone mineral density was assessed via Dual Energy X-ray Absorptiometry (DEXA) prior to treatment. Groups 1 and 2 were fed casein-based diets throughout the entire length of the study and served as the control groups. Treatments were initiated for Groups 3-15 forty days post ovariectomy surgery and followed for 60 days. Bone mineral density was assessed before and after treatments. Two days prior to the termination of the study, rats were placed in individual metabolic cages and urine was collected from 18:00 h-6:00 h. During this period, the rats had no access to food. Urine was collected in acid-washed tubes, acidified with 0.03 ml of 6 mol/L of HCl per ml of urine and the total volume was measured. At the end of the study, the rats were anesthetized with ketomine and xylazine (intraperitoneally; 100 mg and 5 mg/kg body weight, respectively) and exsanguinated. Blood was collected, serum separated and aliquoted in small samples. All urine and plasma samples were frozen at −20° C. until analyses. Femurs and 3-5 lumbar spine were dissected out for bone analyses. Initial and weekly body weights were measured. Sham animals were fed ad libitum and their precise food intakes were measured every three days. Before each feeding, the food remaining was weighed and the amount ingested was calculated. Rats in the other groups were pair-fed to the mean intake of the sham animals and had free access to deionized water.
(§4) The design was a randomized, prospective, single-blind, positive controlled, parallel study. Control groups were fed a casein-based diet. Treatment groups were fed semi-purified diets containing casein, fructooligosaccharides, whole dried plum powder or dried plum polyphenol solids, dried plum juice solids, dried plum puree solids, dried plum skin solids or raisin solids or fig solids or date solids or blueberry solids or HMB. The treatment groups are outlined in following table:
(§5) One hundred fifty, (n=10/group) ninety day old Harlan Sprague-Dawley, 210 gm, female rats were purchased from Harlan Sprague Dawley Inc. (Indianapolis, Ind.). Upon arrival at the institution, rats were individually housed in stainless steel wire mesh cages in an environmentally controlled animal laboratory at 25° C. with a 12 h light-dark cycle. The rats had free access to deionized water and semi-purified diets. They were handled according to National Institutes of Health guidelines for humane treatment of experimental animals.
The composition of the semi-purified casein-based diets are described in the following table. To ensure equivalency, the diets were assayed for carbohydrate, protein, fat, calcium and phosphorus content prior to the feeding protocol. All diets were prepared to be isonitrogenous, isocaloric and equivalent in calcium and phosphorus content. The diets consisted of approximately 22% protein, 67% carbohydrate and 11% fat. […]

[3] = Experiment III: body weight gain, fat gain and food intake
Experimental: as §1, §2

[4] = system: ovariectomized (OVX) rats; experiment: Experiment III: bone mineral density and bone mineral content (DEXA)
Experimental: as §3, §4, §5
The composition of the semi-purified casein-based diets are described in the following table. To ensure equivalency, the diets were assayed for carbohydrate, protein, fat, calcium and phosphorus content prior to the feeding protocol. All diets were prepared to be isonitrogenous, isocaloric and equivalent in calcium and phosphorus content. The diets consisted of approximately 22% protein, 67% carbohydrate and 11% fat. The treatment diets also contained 7.5% or 5% (w/w) dried plum powder (Sunsweet Growers, Inc., Pleasanton, Calif.), or 7.5% (w/w) dried plum solids from juice concentrate (Sunsweet Growers, Inc., Pleasanton, Calif.), or 7.5% (w/w) dried plum solids from puree (Sunsweet Growers, Inc., Pleasanton, Calif.), or 7.5% (w/w) dried plum solids from pulp/skins (Sunsweet Growers, Inc., Pleasanton, Calif.), or dried plum polyphenols equivalent to 7.5% (w/w) dried plum powder, or 7.5% (w/w) raisin solids (Mid America), or 7.5% (w/w) fig solids (Mid America), or 7.5% (w/w) date solids (Mid America), or 7.5% (w/w) blueberry solids (Mid America), or 0.25% (w/w) HMB (Metabolic Technologies, Inc., Ames, Iowa) and 5% or 2% (w/w) short chain fructooligosaccharides (NutraFlora®, FOS Golden Technologies, Inc). […]

CC(C)(O)CC(=O)O [HMB, beta-hydroxy beta methylbutyrate]
Serum IGF-1 levels compared to OVX-control [1]: significant increases | Bone Volume/Total Volume (Ranked) Mean ± SE [2]: 0.1141 ± 0.00658b | Connective Density (Ranked) Mean ± SE [2]: 32.865 ± 2.472b | Structural Model Index (Ranked) Mean ± SE [2]: 1.931 ± 0.04093a | Trabecular No. (Ranked) Mean ± SE [2]: 1.649 ± 0.078c 1/mm | Trabecular separation (Ranked) Mean ± SE [2]: 0.6555 ± 0.03361a mm | Body Weight Gain during Treatment period Mean ± SE ([3]; OVX rats, pair-fed to SHAM): 29.0 ± 6.9 | fat gain during the treatment period ([3]; compared to OVX-control): significantly less fat gain | effects on BMD [4]: no significant effects | reversal of osteopenia [4]: did not reverse established osteopenia | Bone mineral content (LS Mean ± SE) Femur ([4]; OVX rats): 0.4155 ± 0.00996 | Bone mineral content (LS Mean ± SE) Spine ([4]; OVX rats): 0.1187 ± 0.00419 | Bone mineral content (LS Mean ± SE) Whole body ([4]; OVX rats): 9.7590 ± 0.1323 | Bone mineral density (Mean ± SE) Femur ([4]; OVX rats): 0.2198 ± 0.00293b | Bone mineral density (Mean ± SE) Spine ([4]; OVX rats): 0.2341 ± 0.0035bc | Change in Bone mineral density (from Baseline) Whole body ([4]; OVX rats, baseline to final): 0.00298 ± 0.00144ab | Bone mineral density (Mean ± SE) Whole body ([4]; OVX rats, casein-based diets): 0.1599 ± 0.0016b
